Patent publication US20180207228A1, “PEPTIDE COMBINATIONS AND USES THEREOF FOR TREATING GRASS ALLERGY” (ALK-Abelló A/S, priority 2015, published 2018)
Each block holds one molecule with its values, some of them ahead of it. Where no end group is shown, it is not given here.

Columns and labels:
[1] = Peptide solubility by visual inspection; assay type: physicochemical; conditions: for Visual inspection: first solubility screening, TFA salts, 1-7 mg/mL solutions in DMSO
Experimental: Water (pH 3-5) • 2. 250 mM D-Mannitol and 25 mM sodium acetate, pH 4.5 • 3. 250 mM D-Mannitol and 25 mM sodium phosphate, pH 7.0 • 4. […] Water (pH 3-5) • 2. 250 mM D-Mannitol and 25 mM sodium acetate, pH 4.5 • 3. 250 mM D-Mannitol and 25 mM sodium phosphate, pH 7.0 • 4. […] A subset of the peptides was selected as candidate peptides for a final peptide mixture. […] During the solubility studies the peptide-containing solutions were inspected visually before and after filtration for turbidity, and presence of particles/aggregates. In addition, presence of turbidity/particles/aggregates was also detected by optical density (OD) or absorbance of filtered material, but might also be detected by size-exclusion chromatography. Furthermore, Sub-visual particles may also be detected by dynamic light scattering (DLS) analysis on filtered and non-filtered peptide containing solutions. Samples were furthermore subjected to centrifugation to allow for the possible visual inspection of pelleted material.

[2] = Extended solubility and short term stability study (visual, U-HPLC recovery, DLS, 90LS, UV-VIS, sum of scores); conditions: for solubility: pH 4.5
Experimental: For that purpose, the peptides were provided as acetate salts (produced by Innovagen® at a >10 mg scale of manufacturing). To take into account batch-to-batch variations, some peptides were tested from other batches of the manufacturer Innovagen®, as well as from another manufacturer (Almac) and from in-house production. Solubility experiments were performed on peptide in solution in concentrations ranging from 0.5 mg/mL to 3 mg/mL (dry matter)—with the following solvents: • Water • Acetate buffer, pH 4.5 (25 mM sodium acetate containing 250 mM D-Mannitol) • Phosphate buffer, pH 7.0 (25 mM sodium phosphate containing 250 mM D-Mannitol) • Glycine buffer, pH 8.5 (25 mM glycine containing 250 mM D-Mannitol)
The solubility of the peptides was initially investigated by visual inspection and U-HPLC recovery. Visual inspection included assessment of turbidity and presence of particles/aggregates of each peptide solution before and after centrifugation as well as visual inspection of pelleted material. The visual inspection were reported as “clear solution”, “very small precipitation only visible with a magnifier”, “precipitation visible/turbid solution” or “more precipitation/turbid solution”. Filtration of peptide solutions were conducted using syringe based filters containing a polyethersulfone (PES) membrane chemistry and a pore size of 0.2 μm. The amount of the peptide in the supernatant of a filtered sample was determined using U-HPLC with reverse phase chromatography and recovery were determined as described in Example 5.
Peptide solutions were investigated at a time point of 1 hour after production, but were also repeated at later time point (e.g. 24. 48 or 96 hours) to investigate the stability of the peptides.
Peptide solutions were investigated to determine the presence of turbidity/particles/aggregates by use of optical density (OD) and change in UV-VIS absorbance at a wavelength of 320 nm, of the filtrate. […] In addition or as an alternative, the amount of the peptide in the supernatant of a filtered sample was determined using U-HPLC as described above, with the exception that the recovery was determined by dividing the peak area of the filtered sample in relation to the peak area in the original solution prior to filtration. See also Example 5 for further details regarding UV-VIS, and recovery measured by U-HPLC.
The peptides were scored in relation to the outcome of the above mentioned tests: For each peptide in a given buffer and at a given concentration, a sum of test scores was calculated and the sum used to rank the peptides according to solubility: • 1. […] DLS peak 1 number 3 nm gave a score of 1, 3-10 nm gave a score of 2, 10-100 nm gave a score of 3, >100 nm gave a score of 4. • 5. 90LS at 400 nm: Intensity <450 gave a score of 1, <800 gave a score of 2, >800 gave a score of 3. • 6. UV-VIS change in absorbance at 320 nm within 24 hours: 0.01 gave a score of 1, ≤0.05 gave a score of 2, 0.0.2 gave a score of 3 and >0.2 gave a score of 4.

[3] = tested on: grass pollen allergic donor derived TCL-03 lines; test: Extended cross-reactivity study, proliferation on TCL03 DK1+DK2 (Study XR2), scoring; assay type: cell-based, human; conditions: study XR2; for Cross-reactivity score, Cyn d: homologue from Cyn d; for Cross-reactivity sum: scores of all species added; for Cross-reactivity/species: sum divided by the number of species measured
[4] = molecular target: 25 HLA Class II alleles (purified class II MHC molecules); test: competitive radiolabelled-peptide binding to purified HLA class II (25 alleles, binder if IC50 <300 nM); worldwide phenotypic coverage of the alleles found to bind

Molecule: GDEQKLRSAGELELQFRRVK-OH [compound 206]
solubility, 1st round of solubility screening [1]: soluble | solubility in all the test samples (concentrations and pH tested), all solubility tests [2]: good solubility | solubility in aqueous solutions and short-term stability [2]: sufficiently soluble | solubility [2]: acceptable solubility | Cross-reactivity score, Cyn d ([3]; score 0 to 7): 0 | Cross-reactivity score, Dac g ([3]; homologue from Dac g, score 0 to 7): 2 | Cross-reactivity score, Fes p ([3]; homologue from Fes p, score 0 to 7): 2 | Cross-reactivity score, Lol p ([3]; homologue from Lol p, score 0 to 7): 2 | Cross-reactivity score, Pas n ([3]; homologue from Pas n, score 0 to 7): 0 | Cross-reactivity score, Pha a ([3]; homologue from Pha a, score 0 to 7): 1 | Cross-reactivity score, Poa p ([3]; homologue from Poa p, score 0 to 7): 0.5 | Cross-reactivity score, Sor h ([3]; homologue from Sor h, score 0 to 7): 0.5 | Cross-reactivity sum [3]: 8 | Cross-reactivity/species [3]: 1

Molecule: GGASGYKDVDKPPFSGMTGS-OH [compound 006]
Visual inspection [1]: +

Molecule: VVAVDIKEKGKDKWIELKES-OH [compound 021]
Visual inspection [1]: ++

Molecule: TPDKLTGPFTVRYTTEGGTK-OH [compound 024]
Visual inspection [1]: ++

Molecule: Ac-STGGAYESYKFIPALEAAVK-NH2 [compound 262]
solubility by ranking scheme based on a sum of scores [2]: good solubility | solubility in aqueous solutions and short-term stability [2]: sufficiently soluble

Molecule: Ac-STGGAYESYKFIPALEAAVK-OH [compound 260]
solubility by ranking scheme based on a sum of scores [2]: good solubility | solubility in aqueous solutions and short-term stability [2]: sufficiently soluble

Molecule: WLDAKSTWYGKPTGAGPKDN-OH [peptide 201]
solubility, 1st round of solubility screening [1]: soluble | solubility in aqueous solutions and short-term stability [2]: sufficiently soluble | solubility [2]: acceptable solubility

Molecule: AEVELRQHGSEEWEPLTKKG-OH [compound 063]
Visual inspection [1]: +

Molecule: STGGAYESYKFIPALEAAVK-NH2 [compound 261]
solubility by ranking scheme based on a sum of scores [2]: good solubility | solubility in aqueous solutions and short-term stability [2]: sufficiently soluble

Molecule: KYDAYVATLTEALR [peptide 137, Lol p 5b (Bio02A)]
Measured binding coverage 25 alleles [4]: 98%

Molecule: PEVKYAVFEAALTKAIT [peptide 140, Lol p 5a (Rye09B)]
Measured binding coverage 25 alleles [4]: 99%

Molecule: TDDNEEPIAPYHFDLSGHAF [peptide 204 (Phl p 1, 93)]
Measured binding coverage 25 alleles [4]: 78%

Molecule: KKPEVKYAVFEAALTKAIT (not fully specified) [peptide 143, Lol p 5a (Rye09B2)]
Measured binding coverage 25 alleles [4]: 99%

Molecule: YHFDLSGHAFGAMAKKGDEQ [peptide 205 (Phl p 1, 103)]
Measured binding coverage 25 alleles [4]: 88%

Molecule: GDEQKLRSAGELELQFRRVK [peptide 206 (Phl p 1, 119)]
Measured binding coverage 25 alleles [4]: 70%

Molecule: KSSWGAIWRIDPKKPLK [peptide 136, Cyn d 1 (Ber02C)]
Measured binding coverage 25 alleles [4]: 76%

Molecule: KPEVKYAVFEAALTKAIT (not fully specified) [peptide 142, Lol p 5a (Rye09B1)]
Measured binding coverage 25 alleles [4]: 100%

Molecule: LKKAVTAMSEAEK [peptide 139, Lol p 5b (Bio04A)]
Measured binding coverage 25 alleles [4]: 62%

Molecule: AGELELQFRRVKSKYPEGTK [peptide 207 (Phl p 1, 127)]
Measured binding coverage 25 alleles [4]: 71%

Molecule: FIPMKSSWGA [peptide 135, Cyn d 1 (Ber02)]
Measured binding coverage 25 alleles [4]: 19%

Molecule: LVKYVNGDGDVVAVDIKEKG [peptide 209 (Phl p 1, 163)]
Measured binding coverage 25 alleles [4]: 85%

Molecule: EIKSTKPEASSGEPVVVHIT [peptide 203 (Phl p 1, 74)]
Measured binding coverage 25 alleles [4]: 71%

Molecule: KFIPTLVAAVKQAYAAKQ [peptide 138, Lol p 5b (Bio03A)]
Measured binding coverage 25 alleles [4]: 99%

Molecule: SGKAFGAMAKKGQED [peptide 134, Cyn d 1 (Ber01)]
Measured binding coverage 25 alleles [4]: 47%

The next lines start with results.

solubility in aqueous solutions and short-term stability [2]: sufficiently soluble | solubility [2]: acceptable solubility
Molecule: AGYTPAAPAGAEPAGKATTE-OH [peptide 228]

solubility, 1st round of solubility screening [1]: soluble | solubility in aqueous solutions and short-term stability [2]: sufficiently soluble | solubility [2]: acceptable solubility
Molecule: VRYTTEGGTKTEAEDVIPEG-OH [peptide 212]

solubility, 1st round of solubility screening [1]: soluble | solubility in aqueous solutions and short-term stability [2]: sufficiently soluble | solubility [2]: acceptable solubility
Molecule: SMGDDHFWAVRGGGGESFGI-OH [peptide 226]

solubility, 1st round of solubility screening [1]: soluble | Visual inspection after 60 min pH 4.5 ([1]; 3 mg/mL, acetate salt, non-filtered, 250 mM D-Mannitol and 25 mM sodium acetate, pH 4.5): + particles, | Visual inspection after centrifugation pH 4.5 ([1]; 3 mg/mL, acetate salt, non-filtered, 250 mM D-Mannitol and 25 mM sodium acetate, pH 4.5, after centrifugation): ++ | Visual inspection after 60 min pH 7 ([1]; 3 mg/mL, acetate salt, non-filtered, 250 mM D-Mannitol and 25 mM sodium phosphate, pH 7.0): tread + | Visual inspection after centrifugation pH 7 ([1]; 3 mg/mL, acetate salt, non-filtered, 250 mM D-Mannitol and 25 mM sodium phosphate, pH 7.0, after centrifugation): ++ | solubility in aqueous solutions and short-term stability [2]: sufficiently soluble | solubility [2]: acceptable solubility
Molecule: KEDFLGSLVKEIPPRLLYAK-OH [peptide 222]
Cross-reactivity score, Cyn d ([3]; score 0 to 7): 1 | Cross-reactivity sum [3]: 1 | Cross-reactivity/species [3]: 1

Measured binding coverage 25 alleles [4]: 94%
Molecule: VATLSEALRIIAGTLEVHAV [peptide 234 (Phl p 5, 111)]

Measured binding coverage 25 alleles [4]: 99%
Molecule: PANDKFTVFEAAFNNAIKAS [peptide 237 (Phl p 5, 166)]

Measured binding coverage 25 alleles [4]: 99%
Molecule: DKYRTFVATFGAASNKAFAE [peptide 231 (Phl p 5, 46)]

Measured binding coverage 25 alleles [4]: 93%
Molecule: TSKLDAAYKLAYKTAEGATP [peptide 232 (Phl p 5, 84)]

Measured binding coverage 25 alleles [4]: 92%
Molecule: GFKAALAAAAGVPPADKYRT [peptide 230 (Phl p 5, 31)]

Measured binding coverage 25 alleles [4]: 99%
Molecule: EAKYDAYVATLSEALRIIAG [peptide 233 (Phl p 5, 104)]

Measured binding coverage 25 alleles [4]: 99%
Molecule: STGGAYESYKFIPALEAAVK [peptide 238 (Phl p 5, 185)]
